Reference: ChEMBL document CHEMBL5303765, “Data for DCP probe BAY-7081” (2023)

What was measured:
[1] = molecular target: Aurora kinase B (Homo sapiens) (UniProt Q96GD4); experiment: AURKB SGC Tm panel (DSF); conditions: for ΔTm: Compound concentration 10.0 uM
[2] = molecular target: Sodium-dependent serotonin transporter (Homo sapiens) (UniProt P31645); conditions: Compound concentration 10.0 uM
[3] = molecular target: Calcium/calmodulin-dependent protein kinase type II subunit delta (Homo sapiens) (UniProt Q13557); experiment: CAMK2D SGC Tm panel (DSF); conditions: for ΔTm: Compound concentration 10.0 uM
Calcium/calmodulin-dependent protein kinase type II subunit delta (Homo sapiens), sequence (Q13557 whole entry): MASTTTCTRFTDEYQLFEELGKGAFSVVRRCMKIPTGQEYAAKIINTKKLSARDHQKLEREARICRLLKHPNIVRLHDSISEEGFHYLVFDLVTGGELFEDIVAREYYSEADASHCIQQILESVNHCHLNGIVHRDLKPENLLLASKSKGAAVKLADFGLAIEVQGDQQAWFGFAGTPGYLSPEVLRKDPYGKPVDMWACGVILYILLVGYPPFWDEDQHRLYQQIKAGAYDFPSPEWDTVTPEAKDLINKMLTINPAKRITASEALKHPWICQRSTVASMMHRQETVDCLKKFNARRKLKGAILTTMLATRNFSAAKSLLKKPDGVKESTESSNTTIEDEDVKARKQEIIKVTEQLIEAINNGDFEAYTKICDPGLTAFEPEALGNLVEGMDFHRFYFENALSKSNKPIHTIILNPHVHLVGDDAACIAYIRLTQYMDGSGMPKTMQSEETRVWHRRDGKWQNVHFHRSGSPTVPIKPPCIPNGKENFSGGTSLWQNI

[4] = molecular target: T1, Cytoplasmic tyrosine-protein kinase BMX (Homo sapiens) (UniProt P51813); experiment: BMX SGC Tm panel (DSF); conditions: for ΔTm: Compound concentration 10.0 uM
T1 sequence (whole entry): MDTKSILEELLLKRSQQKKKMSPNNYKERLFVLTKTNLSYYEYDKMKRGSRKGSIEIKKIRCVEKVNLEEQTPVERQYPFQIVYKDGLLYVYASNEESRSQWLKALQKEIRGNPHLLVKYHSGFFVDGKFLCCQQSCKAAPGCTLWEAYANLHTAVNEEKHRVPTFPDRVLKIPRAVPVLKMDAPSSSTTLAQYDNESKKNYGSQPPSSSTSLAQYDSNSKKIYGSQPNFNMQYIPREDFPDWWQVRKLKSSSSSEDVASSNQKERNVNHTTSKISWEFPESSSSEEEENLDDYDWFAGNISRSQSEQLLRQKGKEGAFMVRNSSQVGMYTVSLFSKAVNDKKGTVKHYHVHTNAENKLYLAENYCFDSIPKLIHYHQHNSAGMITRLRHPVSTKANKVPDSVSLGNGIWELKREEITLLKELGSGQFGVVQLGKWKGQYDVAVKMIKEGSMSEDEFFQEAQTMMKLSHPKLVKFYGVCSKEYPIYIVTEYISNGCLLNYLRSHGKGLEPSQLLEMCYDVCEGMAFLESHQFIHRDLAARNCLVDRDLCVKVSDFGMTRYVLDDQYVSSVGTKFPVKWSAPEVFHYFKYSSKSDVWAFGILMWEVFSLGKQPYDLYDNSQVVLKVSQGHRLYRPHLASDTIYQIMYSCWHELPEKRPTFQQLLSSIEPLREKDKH

[5] = molecular target: 5-hydroxytryptamine receptor 7 (Homo sapiens) (UniProt P34969); conditions: Compound concentration 10.0 uM
5-hydroxytryptamine receptor 7 (Homo sapiens), sequence (P34969 whole entry): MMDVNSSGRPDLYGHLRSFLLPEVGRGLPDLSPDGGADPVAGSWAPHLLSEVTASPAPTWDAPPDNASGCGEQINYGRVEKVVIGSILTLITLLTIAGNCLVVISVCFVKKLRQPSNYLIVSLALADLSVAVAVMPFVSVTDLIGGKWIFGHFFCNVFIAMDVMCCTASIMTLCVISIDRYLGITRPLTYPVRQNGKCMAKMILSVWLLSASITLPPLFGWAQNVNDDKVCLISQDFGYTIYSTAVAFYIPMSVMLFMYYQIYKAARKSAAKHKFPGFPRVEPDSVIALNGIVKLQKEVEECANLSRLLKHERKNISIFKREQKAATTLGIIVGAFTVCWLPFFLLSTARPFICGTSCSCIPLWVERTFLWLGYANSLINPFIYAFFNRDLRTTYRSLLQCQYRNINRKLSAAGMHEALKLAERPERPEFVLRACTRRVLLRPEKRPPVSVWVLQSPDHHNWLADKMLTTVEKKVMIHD

[6] = molecular target: T2, Transcription intermediary factor 1-alpha (Homo sapiens) (UniProt O15164); experiment: TIF1 SGC Tm panel (DSF); conditions: for ΔTm: Compound concentration 10.0 uM
T2 sequence (whole entry): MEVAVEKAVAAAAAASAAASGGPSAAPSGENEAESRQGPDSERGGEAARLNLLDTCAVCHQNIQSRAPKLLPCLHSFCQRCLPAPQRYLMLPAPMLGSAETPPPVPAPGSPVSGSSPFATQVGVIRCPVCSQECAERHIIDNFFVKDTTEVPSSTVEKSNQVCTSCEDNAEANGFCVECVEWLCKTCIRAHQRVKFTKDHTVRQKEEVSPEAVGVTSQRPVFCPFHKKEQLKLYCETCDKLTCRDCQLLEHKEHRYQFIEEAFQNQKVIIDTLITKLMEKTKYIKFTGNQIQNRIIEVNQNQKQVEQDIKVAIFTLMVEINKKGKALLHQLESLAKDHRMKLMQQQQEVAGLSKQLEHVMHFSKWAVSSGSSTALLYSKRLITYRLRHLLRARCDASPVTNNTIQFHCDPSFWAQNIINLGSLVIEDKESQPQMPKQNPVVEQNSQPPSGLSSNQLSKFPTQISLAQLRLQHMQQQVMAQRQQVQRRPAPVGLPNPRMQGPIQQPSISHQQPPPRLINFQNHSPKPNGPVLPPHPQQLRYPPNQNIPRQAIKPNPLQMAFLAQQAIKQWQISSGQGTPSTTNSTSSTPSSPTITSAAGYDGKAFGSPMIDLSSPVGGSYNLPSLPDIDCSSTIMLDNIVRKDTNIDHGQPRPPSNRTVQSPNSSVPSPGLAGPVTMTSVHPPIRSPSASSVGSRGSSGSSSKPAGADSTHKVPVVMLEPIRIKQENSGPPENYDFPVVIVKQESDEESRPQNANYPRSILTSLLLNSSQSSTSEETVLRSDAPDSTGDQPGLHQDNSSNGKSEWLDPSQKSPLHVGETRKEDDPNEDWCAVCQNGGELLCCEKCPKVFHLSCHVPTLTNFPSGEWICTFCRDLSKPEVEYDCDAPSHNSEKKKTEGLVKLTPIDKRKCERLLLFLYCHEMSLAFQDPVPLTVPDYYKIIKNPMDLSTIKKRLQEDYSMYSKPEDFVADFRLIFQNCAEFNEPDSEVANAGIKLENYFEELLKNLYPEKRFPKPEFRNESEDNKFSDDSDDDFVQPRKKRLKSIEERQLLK

[7] = molecular target: T3, Serine/threonine-protein kinase ULK1 (Homo sapiens) (UniProt O75385); experiment: ULK1 SGC Tm panel (DSF); conditions: for ΔTm: Compound concentration 10.0 uM
T3 sequence (whole entry): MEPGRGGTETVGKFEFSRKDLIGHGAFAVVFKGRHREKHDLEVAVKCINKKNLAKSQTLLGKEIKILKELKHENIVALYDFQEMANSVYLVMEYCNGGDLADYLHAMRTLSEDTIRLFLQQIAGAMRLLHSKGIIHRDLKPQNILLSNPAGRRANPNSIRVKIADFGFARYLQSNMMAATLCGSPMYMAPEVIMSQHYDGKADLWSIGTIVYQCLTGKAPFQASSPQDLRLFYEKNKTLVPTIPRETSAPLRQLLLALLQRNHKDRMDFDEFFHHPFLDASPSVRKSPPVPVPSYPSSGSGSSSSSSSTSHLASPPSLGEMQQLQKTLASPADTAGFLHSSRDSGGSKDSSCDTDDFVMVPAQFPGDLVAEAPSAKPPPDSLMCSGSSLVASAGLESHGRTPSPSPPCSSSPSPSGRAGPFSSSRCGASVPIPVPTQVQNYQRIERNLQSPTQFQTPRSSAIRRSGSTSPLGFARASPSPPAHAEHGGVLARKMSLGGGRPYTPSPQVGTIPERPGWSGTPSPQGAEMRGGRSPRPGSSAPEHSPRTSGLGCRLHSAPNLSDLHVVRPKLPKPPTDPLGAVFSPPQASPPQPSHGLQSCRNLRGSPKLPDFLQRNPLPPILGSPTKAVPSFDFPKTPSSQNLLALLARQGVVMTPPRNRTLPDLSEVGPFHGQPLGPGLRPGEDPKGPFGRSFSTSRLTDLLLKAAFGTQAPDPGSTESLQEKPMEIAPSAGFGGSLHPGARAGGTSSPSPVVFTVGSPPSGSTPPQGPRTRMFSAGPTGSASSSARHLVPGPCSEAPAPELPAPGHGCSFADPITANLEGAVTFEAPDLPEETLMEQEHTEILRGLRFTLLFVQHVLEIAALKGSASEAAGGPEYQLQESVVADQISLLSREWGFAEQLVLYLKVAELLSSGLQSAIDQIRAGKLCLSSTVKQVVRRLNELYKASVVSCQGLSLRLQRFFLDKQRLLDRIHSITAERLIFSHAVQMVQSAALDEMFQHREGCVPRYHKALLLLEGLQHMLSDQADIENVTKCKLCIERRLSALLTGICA

Aurora kinase B (Homo sapiens), sequence (Q96GD4 whole entry): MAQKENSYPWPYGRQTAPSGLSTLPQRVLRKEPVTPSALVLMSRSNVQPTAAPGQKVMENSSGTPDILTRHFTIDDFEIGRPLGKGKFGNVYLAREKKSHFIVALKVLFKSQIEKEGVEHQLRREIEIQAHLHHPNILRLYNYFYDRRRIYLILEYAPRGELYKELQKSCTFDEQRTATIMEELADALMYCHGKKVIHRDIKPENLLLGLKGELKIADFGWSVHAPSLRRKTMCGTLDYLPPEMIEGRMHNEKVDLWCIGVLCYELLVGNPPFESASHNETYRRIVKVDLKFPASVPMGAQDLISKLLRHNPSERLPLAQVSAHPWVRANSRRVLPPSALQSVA
Sodium-dependent serotonin transporter (Homo sapiens), sequence (P31645 whole entry, looked up): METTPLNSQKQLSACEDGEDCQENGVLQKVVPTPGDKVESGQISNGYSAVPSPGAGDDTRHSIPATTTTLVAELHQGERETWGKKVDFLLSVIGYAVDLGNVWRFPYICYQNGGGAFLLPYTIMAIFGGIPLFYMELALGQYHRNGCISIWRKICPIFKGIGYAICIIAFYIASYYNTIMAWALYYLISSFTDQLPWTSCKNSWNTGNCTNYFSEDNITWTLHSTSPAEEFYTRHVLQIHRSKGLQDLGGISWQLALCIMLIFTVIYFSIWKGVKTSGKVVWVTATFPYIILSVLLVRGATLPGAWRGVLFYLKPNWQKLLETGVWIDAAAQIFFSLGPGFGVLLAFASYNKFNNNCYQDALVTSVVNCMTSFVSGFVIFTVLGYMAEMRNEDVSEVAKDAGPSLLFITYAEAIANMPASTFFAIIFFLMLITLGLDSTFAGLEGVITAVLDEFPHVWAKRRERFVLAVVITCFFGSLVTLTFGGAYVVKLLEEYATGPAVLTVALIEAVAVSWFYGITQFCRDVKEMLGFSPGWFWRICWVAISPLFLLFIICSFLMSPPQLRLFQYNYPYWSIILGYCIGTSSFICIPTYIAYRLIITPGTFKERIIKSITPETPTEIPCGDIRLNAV

Structure (SMILES)	delta Tm Staurosporine positive control [1]	ΔTm [1]	inhibition [2] [%]	delta Tm Staurosporine positive control [3]	ΔTm [3]	delta Tm Staurosporine positive control [4]	ΔTm [4]	inhibition [5] [%]	delta Tm Staurosporine positive control [6]	ΔTm [6]	delta Tm Staurosporine positive control [7]	ΔTm [7]
CCC[C@@H]1CNCc2c1[nH]c(=O)c(C#N)c2N1CCC2(CC1)CC2	14.1	-0.199	-1.15	18.2	-0.155	7.31	-0.292	-2.3	0.0394	-0.244	14	0.234
CCC[C@H]1CNCc2c1[nH]c(=O)c(C#N)c2N1CCC2(CC1)CC2	14.1	-0.229	6.23	18.2	0.118	7.31	-0.224	16.3	0.0394	-0.211	14	0.0473
